Test results taken from ChEMBL document CHEMBL4680080 (J Med Chem, 2016).
Values after ≈ are worked out from the molar mass of the structure shown.

How the values were obtained:
[1] = Stability in fistula Wistar-Han rat model assessed as drug stability in intestinal bacteria at 60 umol/kg, iv by HPLC-ES-MS/MS analysis; type: ADME, organism-based, Intestine; settings: in vivo, at 60 µmol/kg
physchem = settings: water
[2] = Drug metabolism in liver of fistula Wistar-Han rat model assessed as drug recovery of taurine conjugate at 60 umol/kg, iv by HPLC-ES-MS/MS analysis; type: ADME, organism-based; settings: in vivo, dose 60 µmol/kg
[3] = Stability in bile of fistula Wistar-Han rat model assessed as drug recovery of unmodified compound at 60 umol/kg, iv by HPLC-ES-MS/MS analysis; type: ADME, organism-based; settings: at 60 µmol/kg, read-out: Drug recovery
[4] = Drug metabolism in bile of fistula Wistar-Han rat model assessed as taurine conjugate formation at 60 umol/kg, iv by HPLC-ES-MS/MS analysis; type: ADME, organism-based; settings: in vivo, dose 60 µmol/kg

Compound	Stabilty [1]	solubility (physchem)	Drug metabolism [2]	dose excreted [3]	Drug metabolism [4]
CC[C@H]1[C@@H](O)[C@@H]2[C@H]([C@@H](O)C[C@]3(C)[C@@H]([C@H](C)CCC(=O)O)CC[C@@H]23)[C@@]2(C)CC[C@@H](O)C[C@@H]12	Stable	150 µM (≈ 65.5 µg/mL)	Metabolite_Notdetected	50%	
C[C@H](CCC(=O)O)[C@H]1CC[C@H]2[C@@H]3[C@H](O)C[C@@H]4C[C@H](O)CC[C@]4(C)[C@H]3CC[C@]12C [CHENODIOL]					Metabolite_Detected
C[C@H](CCC(=O)O)[C@H]1CC[C@H]2[C@@H]3[C@H](O)C[C@@H]4C[C@H](O)CC[C@]4(C)[C@H]3C[C@H](O)[C@]12C [CHOLIC ACID]				10%	
CC[C@H]1[C@@H](O)[C@@H]2[C@H](CC[C@]3(C)[C@@H]([C@H](C)CCC(=O)O)CC[C@@H]23)[C@@]2(C)CC[C@@H](O)C[C@@H]12 [OBETICHOLIC ACID]		9 µM (≈ 3.79 µg/mL)			Metabolite_Detected
C[C@H](CCC(=O)O)[C@H]1CC[C@H]2[C@@H]3[C@@H](O)C[C@@H]4C[C@H](O)CC[C@]4(C)[C@H]3CC[C@]12C [URSODIOL]		7 µM (≈ 2.75 µg/mL)			Metabolite_Detected
